How the values were obtained:
[1] = test system: soluble guanylate cyclase; assay: Luminescence measurement of intracellular cGMP in a cell line expressing the CNG2 channel, a calcium-sensitive photoprotein and soluble guanylate cyclase; assay type: cell-based; conditions: dose-dependent; RLUs measured for 1 min; FIG. 2
Procedure: (§1) The cells are seeded for the measurements on 384-well microtitre plates (MTPs) at 1500 cells per well and on 1536-well MTPs at 250 cells per well. After 1-2 days of growth at 37° C./5% CO2, the cell culture medium (DMEM/F12 containing 10% foetal calf serum) is removed and the cells are charged with coelenterazine (0.8 μg/ml) in calcium-free Tyrode's at 37° C./5% CO2 for 3 h. Subsequently, test substances and appropriate control substances (e.g. SIN-1 or isoprenaline) are added in calcium-free Tyrode's and incubated on the cells for 5-10 min. The extra measurement is then carried out in a light-tight box by adding calcium-containing Tyrode's via a comb (final calcium concentration: 3 mM), with the aid of a charge-coupled device camera.

[2] = test system: β-adrenergic receptor
Procedure: as §1
To measure the effects of substances directly, the cells are charged with coelenterazine in calcium-containing Tyrode's. The substances are then added within the light-tight box and measurement commences immediately with addition of the substances (FIG. 5).
If the cells are charged with coelenterazine in calcium-containing Tyrode's, the agonist isoprenaline may also be added directly to the cells within the light-tight box.

| time until luminescence signal is observed after addition of agonist ([2]; cells charged with coelenterazine in calcium-containing Tyrode's, agonist 10^-6 M added directly within the light-tight box, FIG. 5) | luminescence signal (intracellular cAMP concentration) after activation of the β-adrenergic receptor ([2]; dose-dependent, 10 min incubation in calcium-free Tyrode's, measurement started by adding calcium, 0, 10^-7 M, 10^-6 M, FIG. 4) | SMILES | luminescence signal (intracellular cGMP concentration) after activation of soluble guanylate cyclase [1] |
| --- | --- | --- | --- |
|  |  | [NH-]c1c[n+](N2CCOCC2)no1 [SIN-1] | enhanced luminescence signal |
| within a few seconds | enhanced lumiscence signal | CC(C)NCC(O)c1ccc(O)c(O)c1 (stereo not drawn) [isoprenaline] |  |
